Data reported in patent publication US7795208B2, “Methods of using deacetylase inhibitors to promote cell differentiation and regeneration” (The Salk Institute for Biological Study, priority 2001, dated 2010).
Several values for one entry are separate records, joined by “and”; a condition that tells them apart may be missing. Equal values may be shown once. Entries after “also recorded” stand apart in the source; their conditions may differ.

Key:
Type in all cases: cell-based, mouse
cyclinA-luc = assay: Integrated cyclinA-luc reporter in stable C2C12 clone; conditions: TSA treatment in GM
Protocol: FIGS. 2A-D are graphs showing DI activation muscle-specific transcription in skeletal muscle cells. […] Luciferase activity was measured in non-treated cells cultured in either GM (GM) or DM (DM). Alternatively, C2C12 were exposed to sodium butyrate for 24 hours in GM and then switched to DM without sodium butyrate (Butyr/GM>DM) or treated with sodium butyrate when cultured in DM (Butyr/DM) before being analyzed for luciferase activity. […] Luciferase assays were performed after culturing the cells for 48 hours in DM without sodium butyrate. […] The reporter activity was also analyzed in cells differentiated in the absence of TSA (DM)
Mouse muscle myoblast C2C12 cells (obtained from the American Type Culture Collection, ATCC CRL-1772) and CC42 cells (from Dr. Kenneth Walsh, Tufts University School of Medicine) were cultured in DMEM supplemented with 20% fetal bovine serum, 2 mM glutamine and 1× kanamycin (growth medium, GM). Cellular differentiation was induced with DMEM supplemented with 2% horse serum and 1× insulin, transferring, selenium (Life Technologies). Human skeletal myocytes (CC-2561) were purchased from Clonetics. […] Following transfections, luciferase activity was determined using the Dual-Luciferase reporter assay system (Promega) on a microtiter luminescence detection system (MLX, Dynex). […]

C2C12 cells = assay: Differentiation and muscle protein expression of C2C12 myoblasts exposed to deacetylase inhibitors (MHC immunofluorescence, Western blot, RT-PCR, FACS)
Protocol: (§1) Mouse muscle myoblast C2C12 cells (obtained from the American Type Culture Collection, ATCC CRL-1772) and CC42 cells (from Dr. Kenneth Walsh, Tufts University School of Medicine) were cultured in DMEM supplemented with 20% fetal bovine serum, 2 mM glutamine and 1× kanamycin (growth medium, GM). Cellular differentiation was induced with DMEM supplemented with 2% horse serum and 1× insulin, transferring, selenium (Life Technologies). Human skeletal myocytes (CC-2561) were purchased from Clonetics. Stable C2C12 cell lines with integrated reporters are described in Wu, Z., et al., Mol Cell Biol 20:3951-64 (2000). The MCK-luc, 4RE-luc, MEF2 reporter constructs have been described in Puri, P. L., et al., EMBO Journal 16:369-83 (1997a) and Sartorelli, V., et al., Molecular & Cellular Biology 17:1010-26 (1997). The E2F-luc plasmid is described in Helin, K., et al., Genes Dev 7:1850-61 (1993). The MLC-lacZ-nls plasmid is described in Wu, et al. (2000). Dr. Stuart Schreiber (Harvard University) provided the vector expressing Flag-HDAC1, which is described in Taunton, J., et al., Science 272: 408-11 (1996). Transient transfections were performed using FuGENE 6 transfection reagent (Roche Molecular Biochemicals). Following transfections, luciferase activity was determined using the Dual-Luciferase reporter assay system (Promega) on a microtiter luminescence detection system (MLX, Dynex).
For immunoblotting, cell extracts were obtained after incubating the cells in standard lysis buffer. Western blots were probed with the following antibodies: anti-MHC (MF-20), anti-myogenin (FD5), and anti-tubulin (E7), obtained from the Developmental Studies Hybridoma Bank, University of Iowa. Primary antibodies were visualized with the ECL cheminoluminescent kit (Amersham). Cells were fixed and stained with anti-MHC MF-20 antibodies. Nuclei were visualized by 4′,6′-[…]-2-phenylindole (DAPI). FITC-conjugated or Texas red-conjugated secondary antibodies were employed to reveal the primary antibodies.
C2C12 and CC42 cells were exposed to sodium butyrate 5 mM (Sigma), trichostatin A 50 nM (Upstate Biotechnologies), or valproic acid 10 mM (Sigma) for 24 hours in GM (GM regimen). TSA was removed and the cells cultured in DM for 48 hrs before being analyzed. When indicated (DM regimen), the cells were exposed to deacetylase inhibitors when switched from GM to DM and cultured in their presence for 48 hrs.
Another striking effect induced by DI is their ability to increase the number of nuclei present in MHC positive cells. While approximately 15% of the total nuclei are present in elongated, MHC-positive myotubes not exposed to DI, approximately 75-80% of the total nuclei are detected in hypernucleated MHC-positive myotubes when these have been previously exposed to DI (see FIG. 1D and Table 1). In Table 1, C2C12 cells were either exposed to sodium butyrate, TSA, VPA or left untreated for 24 hours in GM. The medium was replaced with DM without DI, and MHC expression was detected by immunofluorescent staining. Nuclei were visualized with DAPI. The values in parenthesis indicate the percentage of nuclei detected in MHC-positive cells. The values are derived from two independent trials.

[1] = test system: 4RE-luc, MEF2-luc, MCK-luc; assay: Luciferase assay of transiently transfected myogenic reporters in skeletal myoblasts
Protocol: as §1, with “Dr. Stuart Schreiber (Harvard University) provided the vector expressing Flag-HDAC1, which is described in Taunton, J., et al., Science 272: 408-11 (1996). Transient transfections were performed using FuGENE 6 transfection reagent (Roche Molecular Biochemicals).” left out
C2C12 and CC42 cells were exposed to sodium butyrate 5 mM (Sigma), trichostatin A 50 nM (Upstate Biotechnologies), or valproic acid 10 mM (Sigma) for 24 hours in GM (GM regimen). TSA was removed and the cells cultured in DM for 48 hrs before being analyzed. […]

E2F-responsive construct = assay: Luciferase assay of E2F-responsive construct; conditions: cells exposed to DI in DM
Protocol: as §1, with “FIGS. 2A-D are graphs showing DI activation muscle-specific transcription in skeletal muscle cells. […] Luciferase activity was measured in non-treated cells cultured in either GM (GM) or DM (DM). […] The reporter activity was also analyzed in cells differentiated in the absence of TSA (DM) Mouse” for “Mouse”, “[…].,” for “Helin, K.,”, “The MLC-lacZ-nls plasmid is described in Wu, et al. (2000). Dr. Stuart Schreiber (Harvard University) provided the vector expressing Flag-HDAC1, which is described in Taunton, J., et al., Science 272: 408-11 (1996). Transient transfections were performed using FuGENE 6 transfection reagent (Roche Molecular Biochemicals).” left out

[2] = C2C12, DI 24 hours in GM, then DM without DI, Tr. 1 and Tr. 2

- HDAC1-mediated inhibition of 4RE-luc ([1]; HDAC1 expression vector co-transfected): could be reversed
- transcription driven from an E2F-responsive construct (E2F-responsive construct): stimulated
Structure (SMILES): CC(/C=C/C(=O)NO)=C\[C@@H](C)C(=O)c1ccc(N(C)C)cc1 [TSA, trichostatin A]
- serum-dependent transcription of integrated cyclinA-luc (cyclinA-luc): not stimulated
- Nuclei/MHC-Positive Cells (number of nuclei) (C2C12 cells; [2]): 200 and 210
- percentage of nuclei detected in MHC-positive cells (C2C12 cells; [2]): 75% and 65%
- endogenous MCK transcripts (RT-PCR) (C2C12 cells; undifferentiated myoblasts exposed in GM): induction of endogenous MCK transcripts
- MHC expression and frequency of MHC-positive multinucleated cells (C2C12 cells; undifferentiated myoblasts exposed in GM, differentiated in the absence of DI, vs untreated cells): effects undistinguishable from those exerted by sodium butyrate
- transcription of transiently transfected myogenic reporter constructs ([1]; treatment in GM or in DM): stimulates transcription of the reporter constructs only when the DI inhibitors are applied to the cells cultured in GM; also recorded: activation of a transfected MCK-luc reporter
